# Test results: patent US20030013658A1, “Small peptides and methods for treatment of asthma and inflammation” (Hisatek, LLC, priority 1997, published 2003)
# Where no end group is shown, it is not given here. The star is where a group is joined. For = O=C*
# System: induced type II collagen arthritis
# Assay: Induced type II collagen arthritis mouse model
# Assay type: in vivo
# Settings: HK-X TC or footpad, 0.4 or 4 mg/kg for 20 days; method written in present tense
# Excerpt: A mouse model is used to evaluate the effect of the compounds of the present invention on the histological, radiographic and clinical appearance of induced type II collagen arthritis. Mice: DBA/1(2) male mice weighing 25 gms (Jackson Laboratories, Bar Harbor, Me. or B&K Universal, Kent Wash.) are used for this work. This strain of mouse is susceptible to CIA by the injection of heterologous type II collagen. Bovine Collagen (BC), Complete Freund's Adjuvant (CFA) and Incomplete Freund's Adjuvant (ICFA) can be obtained from Sigma Chemical. Antigen for immunization is processed in 0.1 M acetic acid and formulated with CFA or ICFA. […] The degree of cellularity and areas of inflammation are quantified by using digitization of histological photomicrographs and applying standard area and point counting techniques as described above. […] The average area of soft tissue (pannus) of the joint is determined by analysis of computer digitized radiographs, along with changes in density of the adjacent hard tissues by comparison with internal standards included with each radiograph. […] The significance of the differences in density and area for control and experimental mice is assessed using paired T-tests at each time point. […] Swelling of hind paws is also quantitated by measuring the thickness of the ankle from the medial to the lateral malledus with a constant tension caliper. […]
substance,measurement,value
f-Met-Leu-Phe-Phe (For-MLFF) [Example 9],degree of arthritis,found to reduce the degree of arthritis
